Assay results: PMC10932284 (International Journal of Molecular Sciences, 2024)
Like-named read-outs stand apart in the source and are kept apart here.

Tests used:
[1] = test system: M. tuberculosis strain susceptible to rifampicin and resistant to isoniazid; format: cell-based, Mycobacterium tuberculosis; details: 28 days, 37 °C
[2] = test system: M. tuberculosis strain resistant to both rifampicin and isoniazid; format: cell-based, Mycobacterium tuberculosis; details: for number of M. tuberculosis colonies/standard inoculum volume (0.2 mL): 28 days, 37 °C; for growth inhibition of mycobacteria (in words): both concentrations (1 and 2 µg/mL)
[3] = 1 µg/mL in Lowenstein Jensen medium
[4] = 2 µg/mL in Lowenstein Jensen medium

SMILES	number of M. tuberculosis colonies/standard inoculum volume (0.2 mL) [1, 3] [colonies]	number of M. tuberculosis colonies/standard inoculum volume (0.2 mL) [1, 4] [colonies]	number of M. tuberculosis colonies/standard inoculum volume (0.2 mL) [2, 3] [colonies]	number of M. tuberculosis colonies/standard inoculum volume (0.2 mL) [2, 4] [colonies]	growth inhibition of mycobacteria (in words) [2]
O=C1Nc2ccccc2S(=O)(=O)N1 [2a]	0	0	0	0	inhibited
Cc1ccc2c(c1)S(=O)(=O)NC(=O)N2 [2c]	0	0	0	0	inhibited
Cc1cc(C)c2c(c1)S(=O)(=O)NC(=O)N2 [2d]	0	0	0	0	inhibited
O=C1Nc2ccc(F)cc2S(=O)(=O)N1 [2h]	0	0	0	0	inhibited
O=C1Nc2ccc(O)cc2S(=O)(=O)N1 [2t]		0	0	0	inhibited
CC(=O)Nc1nnc(S(N)(=O)=O)s1 [AAZ, acetazolamide, reference compound]	0	0	0	0	
CC(=O)/N=c1/sc(S(N)(=O)=O)nn1C [MTZ, reference compound]	0	0	0	0	
